Like-named read-outs stand apart in the source and are kept apart here.
Assays:
M2 muscarinic receptor = target: T1, M2 muscarinic receptor (Rattus norvegicus, UniProt P10980); test: Radioligand binding assay, [3H]-N-methylscopolamine, rat heart membranes
T1 construct: Submandibular glands and heart were isolated and placed in ice cold homogenising buffer; from tissue; host or cells: rat heart membrane homogenate
T1 sequence (P10980 1-466): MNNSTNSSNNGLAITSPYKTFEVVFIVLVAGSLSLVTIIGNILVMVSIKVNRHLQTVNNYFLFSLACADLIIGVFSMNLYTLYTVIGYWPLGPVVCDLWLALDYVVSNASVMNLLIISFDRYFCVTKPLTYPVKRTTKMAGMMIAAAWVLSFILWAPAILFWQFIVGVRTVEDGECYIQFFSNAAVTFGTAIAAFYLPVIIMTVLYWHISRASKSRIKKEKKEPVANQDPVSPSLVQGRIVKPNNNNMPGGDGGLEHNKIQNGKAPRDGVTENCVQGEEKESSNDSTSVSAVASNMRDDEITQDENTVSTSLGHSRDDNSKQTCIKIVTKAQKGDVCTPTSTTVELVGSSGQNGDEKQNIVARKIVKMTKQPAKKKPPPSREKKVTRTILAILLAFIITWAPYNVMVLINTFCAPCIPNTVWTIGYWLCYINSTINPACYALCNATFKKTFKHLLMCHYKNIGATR

M3 muscarinic receptor [1] = target: T2, M3 muscarinic receptor (Rattus norvegicus, UniProt P08483); conditions: for Ki: read-out: Receptor Binding Assay Ki (nM) M3
M3 muscarinic receptor [2] = target: T2, M3 muscarinic receptor; test: biochemical
[3] = read-out: Receptor Binding Assay Ki (nM) M2

T2 sequence (P08483 whole entry): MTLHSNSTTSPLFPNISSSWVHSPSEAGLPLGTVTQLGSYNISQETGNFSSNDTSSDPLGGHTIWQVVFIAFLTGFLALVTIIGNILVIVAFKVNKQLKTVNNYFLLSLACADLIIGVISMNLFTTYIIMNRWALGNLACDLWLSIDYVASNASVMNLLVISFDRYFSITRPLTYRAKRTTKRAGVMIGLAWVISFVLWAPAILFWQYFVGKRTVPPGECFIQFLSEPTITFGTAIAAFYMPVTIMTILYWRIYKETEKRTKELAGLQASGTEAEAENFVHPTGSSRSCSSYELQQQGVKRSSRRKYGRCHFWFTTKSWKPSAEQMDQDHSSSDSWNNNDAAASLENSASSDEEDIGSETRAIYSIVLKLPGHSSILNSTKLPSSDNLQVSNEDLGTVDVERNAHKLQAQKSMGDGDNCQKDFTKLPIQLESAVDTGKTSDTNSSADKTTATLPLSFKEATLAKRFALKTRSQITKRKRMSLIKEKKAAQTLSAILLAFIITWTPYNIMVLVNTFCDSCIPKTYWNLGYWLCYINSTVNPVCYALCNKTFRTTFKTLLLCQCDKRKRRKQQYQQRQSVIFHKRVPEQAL

In the case of “4-[(1S,5R)-2-methyl-3-azabicyclo[3.1.0]hex-3-yl]-but-2-ynyl-2-cyclohexyl-2-hydroxyphenylacetate [Compound No. 18]”, the Ki (M2 muscarinic receptor; [3]) is reported as 185 nM, the “Selectivity (M2/M3)” value (M3 muscarinic receptor [1]) is reported as 7.708 and the Ki (M3 muscarinic receptor [1]) is reported as 24 nM.

For “4-[(1S,5R)-2-methyl-3-azabicyclo[3.1.0]hex-3-yl]-but-2-ynyl-2-cyclopentyl-2-hydroxyphenylacetate [Compound No. 17]”, the Ki (M2 muscarinic receptor; [3]) was 142 nM, the “Selectivity (M2/M3)” value (M3 muscarinic receptor [1]) was 3.641 and the Ki (M3 muscarinic receptor [1]) was 39 nM.

For `O=C(NCC#CCN1C[C@H]2C[C@H]2C1)C(O)(c1ccccc1)C1CCCCC1` (stereo partly drawn) [Compound No. 9, N-{4-[(1R, 5S)-3-azabicyclo[3.1.0]-hex-3-yl]but-2-ynyl}-2-hydroxy-2-cyclohexyl-2-phenylacetamide], the Ki (M2 muscarinic receptor) was 3580 nM.

For `O=C(NCC#CCN1C[C@H]2C[C@H]2C1)C(O)(c1ccccc1)C1CCCC1` (stereo partly drawn) [Compound No. 10, N-{4-[(1R, 5S)-3-azabicyclo[3.1.0]-hex-3-yl]but-2-ynyl}-2-hydroxy-2-cyclopentyl-2-phenylacetamide], the Ki (M2 muscarinic receptor) was 425 nM, the “Selectivity (M2/M3)” value (M3 muscarinic receptor [1]) was 1.28 and the Ki (M3 muscarinic receptor [2]) was 0.33 µM.

Work on `O=C(NCC#CCN1C[C@H]2C[C@H]2C1)C(O)(c1ccccc1)c1ccccc1` [Compound No. 11, N-{4-[(1R, 5S)-3-azabicyclo[3.1.0]-hex-3-yl]but-2-ynyl}-2-hydroxy-2,2-diphenylacetamide] yielded a Ki (M2 muscarinic receptor) of 639 nM.

In the case of `O=C(NCC#CCN1C[C@H]2C[C@H]2C1)C(O)(c1ccc(F)cc1)c1ccc(F)cc1` [Compound No. 12, N-{4-[(1R,5S)-3-azabicyclo[3.1.0]-hex-3-yl]-but-2-ynyl}2-hydroxy-bis(4-florophenyl)acetamide], the Ki (M2 muscarinic receptor) is reported as 736 nM.
